Key:
Conditions in all cases: incubation time: 72 h
CAL-85-1 [1] = test: normalised response (% of control), CellTox Green; higher = less cell death (100 = DMSO, 0 = benzethonium chloride kill control)
How it was run: (§1)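 Two readouts were taken after 72 h: CellTox Green fluorescence (485/520 nm) first, then CellTiter-Glo luminescence after 10 min at room temperature. Breast cancer cell lines had been seeded as 20 µl suspension into 384-well plates holding compound at 5 concentrations in 10-fold steps across a compound-specific 10,000-fold range. Each value is a normalised signal at a single concentration, with plates scaled to 0.1 % DMSO (100) and a positive kill control (0).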

CAL-120 [2] = test: as above
How it was run: as §1

HCC1599 [3] = test: as above
How it was run: as §1

MDA-MB-436 [4] = test: as above
How it was run: as §1

MCF-10A [5] = test: as above
How it was run: as §1

HCC1937 [6] = test: as above
How it was run: as §1

BT-474 [7] = test: as above
How it was run: as §1

MFM-223 [8] = test: as above
How it was run: as §1

HCC1143 [9] = test: as above
How it was run: as §1

CAL-148 [10] = test: as above
How it was run: as §1

HDQ-P1 [11] = test: as above
How it was run: as §1

BT-549 [12] = test: as above
How it was run: as §1

CAL-51 [13] = test: as above
How it was run: as §1

MDA-MB-453 [14] = test: as above
How it was run: as §1

DU-4475 [15] = test: as above
How it was run: as §1

MDA-MB-468 [16] = test: as above
How it was run: as §1

MDA-MB-231 [17] = test: as above
How it was run: as §1

CAL-85-1 [18] = test: normalised response (% of control), CellTiter-Glo; higher = more viable cells (100 = DMSO, 0 = benzethonium chloride kill control)
Description: (§2)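 DSRT, 72 h incubation, CellTox Green / CellTiter-Glo readout. Signal is normalised to DMSO and benzethonium chloride controls. Value is the normalised response at the highest dose.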

CAL-120 [19] = test: as above
Description: as §2

SK-BR-3 = test: as above
Description: as §2

HCC1599 [20] = test: as above
Description: as §2

MDA-MB-436 [21] = test: as above
Description: as §2

MCF-10A [22] = test: as above
Description: as §2

HCC1937 [23] = test: as above
Description: as §2

BT-474 [24] = test: as above
Description: as §2

MFM-223 [25] = test: as above
Description: as §2

HCC1143 [26] = test: as above
Description: as §2

CAL-148 [27] = test: as above
Description: as §2

HDQ-P1 [28] = test: as above
Description: as §2

BT-549 [29] = test: as above
Description: as §2

CAL-51 [30] = test: as above
Description: as §2

MDA-MB-453 [31] = test: as above
Description: as §2

Hs578T [32] = test: as above
Description: as §2

DU-4475 [33] = test: as above
Description: as §2

MDA-MB-468 [34] = test: as above
Description: as §2

MDA-MB-231 [35] = test: as above
Description: as §2

Hs578T [36] = test: normalised response (% of control), CellTox Green; higher = less cell death (100 = DMSO, 0 = benzethonium chloride kill control)
How it was run: as §1

Compound: Cc1nc(C(=O)NCC(=O)O)c(O)c2ccc(Oc3ccccc3)cc12 [FG-4592] (10000 nM)
- normalised response (CAL-85-1 [1]): 78.6%
- normalised response (CAL-120 [2]): 107%
- normalised response (HCC1599 [3]): 99.9%
- normalised response (MDA-MB-436 [4]): 93.9%
- normalised response (MCF-10A [5]): 111%
- normalised response (HCC1937 [6]): 72.6%
- normalised response (BT-474 [7]): 98%
- normalised response (MFM-223 [8]): 104%
- normalised response (HCC1143 [9]): 118%
- normalised response (CAL-148 [10]): 89.3%
- normalised response (HDQ-P1 [11]): 114%
- normalised response (BT-549 [12]): 94.7%
- normalised response (CAL-51 [13]): 105%
- normalised response (MDA-MB-453 [14]): 95.2%
- normalised response (DU-4475 [15]): 97.7%
- normalised response (MDA-MB-468 [16]): 125%
- normalised response (MDA-MB-231 [17]): 95.7%
- normalised response (CAL-85-1 [18]): 101%
- normalised response (CAL-120 [19]): 102%
- normalised response (SK-BR-3): 101%
- normalised response (HCC1599 [20]): 92%
- normalised response (MDA-MB-436 [21]): 98.8%
- normalised response (MCF-10A [22]): 107%
- normalised response (HCC1937 [23]): 100%
- normalised response (BT-474 [24]): 94.5%
- normalised response (MFM-223 [25]): 103%
- normalised response (HCC1143 [26]): 98.5%
- normalised response (CAL-148 [27]): 113%
- normalised response (HDQ-P1 [28]): 92%
- normalised response (BT-549 [29]): 92%
- normalised response (CAL-51 [30]): 97.7%
- normalised response (MDA-MB-453 [31]): 97.4%
- normalised response (Hs578T [32]): 109%
- normalised response (DU-4475 [33]): 97%
- normalised response (MDA-MB-468 [34]): 110%
- normalised response (MDA-MB-231 [35]): 96.1%

Compound: CN(C)C(=N)NC(=N)N [Metformin] (100000 nM)
- normalised response (CAL-85-1 [1]): 125%
- normalised response (CAL-120 [2]): 94.6%
- normalised response (HCC1599 [3]): 76%
- normalised response (MDA-MB-436 [4]): 93.3%
- normalised response (MCF-10A [5]): 89.2%
- normalised response (HCC1937 [6]): 95.3%
- normalised response (BT-474 [7]): 91.1%
- normalised response (MFM-223 [8]): 96.3%
- normalised response (CAL-148 [10]): 98.1%
- normalised response (HDQ-P1 [11]): 99.2%
- normalised response (BT-549 [12]): 76.3%
- normalised response (CAL-51 [13]): 86.8%
- normalised response (MDA-MB-453 [14]): 90.5%
- normalised response (Hs578T [36]): 52.6%
- normalised response (DU-4475 [15]): 90.3%
- normalised response (MDA-MB-231 [17]): 69.3%
- normalised response (CAL-85-1 [18]): 104%
- normalised response (CAL-120 [19]): 108%
- normalised response (SK-BR-3): 80%
- normalised response (HCC1599 [20]): 108%
- normalised response (MDA-MB-436 [21]): 102%
- normalised response (MCF-10A [22]): 75.6%
- normalised response (HCC1937 [23]): 86.8%
- normalised response (BT-474 [24]): 95.5%
- normalised response (MFM-223 [25]): 90.3%
- normalised response (HCC1143 [26]): 93%
- normalised response (CAL-148 [27]): 104%
- normalised response (HDQ-P1 [28]): 95.4%
- normalised response (BT-549 [29]): 99.3%
- normalised response (CAL-51 [30]): 82.5%
- normalised response (MDA-MB-453 [31]): 89.9%
- normalised response (Hs578T [32]): 92.6%
- normalised response (DU-4475 [33]): 79.1%
- normalised response (MDA-MB-468 [34]): 86.1%
- normalised response (MDA-MB-231 [35]): 91.2%

Compound: CC(C)(C)c1nc(-c2cccc(NS(=O)(=O)c3c(F)cccc3F)c2F)c(-c2ccnc(N)n2)s1 [Dabrafenib] (2500 nM)
- normalised response (CAL-85-1 [1]): 83.9%
- normalised response (CAL-120 [2]): 78.8%
- normalised response (HCC1599 [3]): 103%
- normalised response (MDA-MB-436 [4]): 107%
- normalised response (MCF-10A [5]): 102%
- normalised response (BT-474 [7]): 103%
- normalised response (MFM-223 [8]): 104%
- normalised response (HCC1143 [9]): 120%
- normalised response (BT-549 [12]): 94.2%
- normalised response (CAL-51 [13]): 106%
- normalised response (MDA-MB-453 [14]): 96.6%
- normalised response (DU-4475 [15]): 70.1%
- normalised response (MDA-MB-468 [16]): 87%
- normalised response (MDA-MB-231 [17]): 97.8%
- normalised response (CAL-85-1 [18]): 108%
- normalised response (CAL-120 [19]): 75.8%
- normalised response (SK-BR-3): 80.8%
- normalised response (HCC1599 [20]): 89.4%
- normalised response (MDA-MB-436 [21]): 92.3%
- normalised response (MCF-10A [22]): 96%
- normalised response (HCC1937 [23]): 96.8%
- normalised response (BT-474 [24]): 100%
- normalised response (MFM-223 [25]): 93.1%
- normalised response (HCC1143 [26]): 95%
- normalised response (CAL-148 [27]): 108%
- normalised response (HDQ-P1 [28]): 94%
- normalised response (BT-549 [29]): 92.7%
- normalised response (CAL-51 [30]): 72.6%
- normalised response (MDA-MB-453 [31]): 95.4%
- normalised response (Hs578T [32]): 88%
- normalised response (DU-4475 [33]): 0.71%
- normalised response (MDA-MB-468 [34]): 89.2%
- normalised response (MDA-MB-231 [35]): 101%

Source: the supplement of paper PMC4862054
